One assay concerns P. falciparum 3D7. Nature of the assay: Asexual blood stage growth inhibition, SYBR Green I, 72 h. It is filed as cell-based. The following applies: Plasmodium falciparum, mean (standard error) of 3 biological replicates. As for the experimental part:
(§1) Asexual blood stage P. falciparum strains, including 3D7 and drug-resistant field isolates, were cultured using standard conditions in RPMI 1640 with 0.5% Albumax as described previously. EC₅₀ values were determined using a SYBR Green I fluorescence assay after 72 h of compound exposure. EC50 values were derived by nonlinear regression in GraphPad Prism version 10.

The next assay relates to P. falciparum 7G8. Described as above. It is filed as cell-based. The following applies: Plasmodium falciparum, mean (standard error) of 3 biological replicates. As for the experimental part:
as §1

Another assay concerns P. falciparum Dd2-B2. The description is as above. It is filed as cell-based. To be noted: Plasmodium falciparum, mean (standard error) of 3 biological replicates. How it is done: as §1
Another assay concerns P. falciparum K1. Described as above. It is filed as cell-based. To be noted: Plasmodium falciparum, mean (standard error) of 3 biological replicates. As for the experimental part: as §1
The target in assay [1] is PfPKG (Plasmodium falciparum, UniProt Q8I719). Nature of the assay: PfPKG enzyme inhibition. Format: biochemical. The following applies: for IC50: Table 7, spread in parentheses not defined.
In the next assay the target is T1, ROCK2 (Homo sapiens, UniProt O75116).
T1 construct: purchased Eurofins (DiscoverX)
In words: KdElect binding affinity assay. To be noted: for Kd for ROCK2 higher compared to RUPB-61: range over RUPB-8, -18, -34 and over ROCK1 and ROCK2; for Kd: read-out: ROCK2 Experimental Kd. As for the experimental part: (§2) Off-target kinase inhibition was assessed using the DiscoverX scanMAX (Eurofins) panel at 1 µM compound concentration. Binding affinities of CIT, ROCK1 and ROCK2 were evaluated using the KdElect assay (Eurofins).

In another assay the target is T2, ROCK1 (Homo sapiens, UniProt Q13464).
T2 construct: purchased Eurofins (DiscoverX)
Nature of the assay: KdElect binding affinity assay. The following applies: for Kd for ROCK1 higher compared to RUPB-61: range over RUPB-8, -18, -34 and over ROCK1 and ROCK2; for Kd: read-out: ROCK1 Experimental Kd; for ROCK1 Experimental Binding (ΔG): ∆G = -RTln(Kd), 300K. How it is done: as §2

The target in a further assay is T3, CIT (Homo sapiens, UniProt O14578).
T3 construct: purchased Eurofins (DiscoverX)
In words: KdElect binding affinity assay. To be noted: for Kd for CIT higher compared to RUPB-61: range over RUPB-18, -34, -69; for Kd: read-out: CIT Experimental Kd. As for the experimental part:
as §2

Assay [2] concerns P. falciparum CamWT and CamC580Y. To be noted: ring-stage assays; cited from earlier work.
Another assay concerns P. falciparum TM90_C2B. Nature of the assay: Asexual blood stage growth inhibition, SYBR Green I, 72 h. Format: cell-based. To be noted: Plasmodium falciparum, mean (standard error) of 3 biological replicates. As for the experimental part:
as §1

For assay [3], the system named is PfPKG. To be noted: cited from earlier work.
Setting [4] is: from IC50 ≈ Kd, ∆G = -RTln(Kd), 300K.

T1 sequence (O75116 whole entry): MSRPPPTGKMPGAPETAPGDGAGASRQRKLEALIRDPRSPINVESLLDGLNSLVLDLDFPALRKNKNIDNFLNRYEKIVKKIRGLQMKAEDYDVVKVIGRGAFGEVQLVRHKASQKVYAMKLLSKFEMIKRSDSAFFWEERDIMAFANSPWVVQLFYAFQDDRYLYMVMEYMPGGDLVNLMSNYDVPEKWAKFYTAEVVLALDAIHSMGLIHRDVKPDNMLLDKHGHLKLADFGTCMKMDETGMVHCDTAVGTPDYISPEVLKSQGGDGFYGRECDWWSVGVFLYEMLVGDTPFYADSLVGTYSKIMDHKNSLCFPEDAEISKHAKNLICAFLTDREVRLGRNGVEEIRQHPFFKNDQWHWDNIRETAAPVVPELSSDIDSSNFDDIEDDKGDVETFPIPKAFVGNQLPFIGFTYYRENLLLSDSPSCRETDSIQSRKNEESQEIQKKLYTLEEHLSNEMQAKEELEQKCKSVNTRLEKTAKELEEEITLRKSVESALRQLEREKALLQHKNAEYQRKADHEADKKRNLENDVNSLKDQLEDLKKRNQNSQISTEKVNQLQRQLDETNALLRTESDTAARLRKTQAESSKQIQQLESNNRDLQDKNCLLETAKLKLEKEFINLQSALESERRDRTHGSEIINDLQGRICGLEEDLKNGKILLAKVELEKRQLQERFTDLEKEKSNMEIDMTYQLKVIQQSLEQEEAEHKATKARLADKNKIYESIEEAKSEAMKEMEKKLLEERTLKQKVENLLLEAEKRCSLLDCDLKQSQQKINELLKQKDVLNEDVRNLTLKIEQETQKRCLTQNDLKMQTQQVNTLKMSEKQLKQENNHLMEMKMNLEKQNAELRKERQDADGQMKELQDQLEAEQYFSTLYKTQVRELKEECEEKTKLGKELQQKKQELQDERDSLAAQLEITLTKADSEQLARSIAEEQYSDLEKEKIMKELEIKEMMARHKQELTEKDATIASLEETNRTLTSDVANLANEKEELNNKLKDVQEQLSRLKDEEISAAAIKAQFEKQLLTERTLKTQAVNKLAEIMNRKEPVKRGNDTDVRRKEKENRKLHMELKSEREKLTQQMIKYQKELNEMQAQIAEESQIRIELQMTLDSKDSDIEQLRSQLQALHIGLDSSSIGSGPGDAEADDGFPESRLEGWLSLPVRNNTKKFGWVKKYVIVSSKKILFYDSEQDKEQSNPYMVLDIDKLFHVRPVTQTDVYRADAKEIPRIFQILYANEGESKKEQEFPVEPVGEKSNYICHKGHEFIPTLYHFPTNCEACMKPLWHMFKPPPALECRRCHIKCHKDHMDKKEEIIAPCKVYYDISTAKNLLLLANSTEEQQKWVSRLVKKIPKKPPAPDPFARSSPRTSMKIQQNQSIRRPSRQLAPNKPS
T2 sequence (Q13464 whole entry): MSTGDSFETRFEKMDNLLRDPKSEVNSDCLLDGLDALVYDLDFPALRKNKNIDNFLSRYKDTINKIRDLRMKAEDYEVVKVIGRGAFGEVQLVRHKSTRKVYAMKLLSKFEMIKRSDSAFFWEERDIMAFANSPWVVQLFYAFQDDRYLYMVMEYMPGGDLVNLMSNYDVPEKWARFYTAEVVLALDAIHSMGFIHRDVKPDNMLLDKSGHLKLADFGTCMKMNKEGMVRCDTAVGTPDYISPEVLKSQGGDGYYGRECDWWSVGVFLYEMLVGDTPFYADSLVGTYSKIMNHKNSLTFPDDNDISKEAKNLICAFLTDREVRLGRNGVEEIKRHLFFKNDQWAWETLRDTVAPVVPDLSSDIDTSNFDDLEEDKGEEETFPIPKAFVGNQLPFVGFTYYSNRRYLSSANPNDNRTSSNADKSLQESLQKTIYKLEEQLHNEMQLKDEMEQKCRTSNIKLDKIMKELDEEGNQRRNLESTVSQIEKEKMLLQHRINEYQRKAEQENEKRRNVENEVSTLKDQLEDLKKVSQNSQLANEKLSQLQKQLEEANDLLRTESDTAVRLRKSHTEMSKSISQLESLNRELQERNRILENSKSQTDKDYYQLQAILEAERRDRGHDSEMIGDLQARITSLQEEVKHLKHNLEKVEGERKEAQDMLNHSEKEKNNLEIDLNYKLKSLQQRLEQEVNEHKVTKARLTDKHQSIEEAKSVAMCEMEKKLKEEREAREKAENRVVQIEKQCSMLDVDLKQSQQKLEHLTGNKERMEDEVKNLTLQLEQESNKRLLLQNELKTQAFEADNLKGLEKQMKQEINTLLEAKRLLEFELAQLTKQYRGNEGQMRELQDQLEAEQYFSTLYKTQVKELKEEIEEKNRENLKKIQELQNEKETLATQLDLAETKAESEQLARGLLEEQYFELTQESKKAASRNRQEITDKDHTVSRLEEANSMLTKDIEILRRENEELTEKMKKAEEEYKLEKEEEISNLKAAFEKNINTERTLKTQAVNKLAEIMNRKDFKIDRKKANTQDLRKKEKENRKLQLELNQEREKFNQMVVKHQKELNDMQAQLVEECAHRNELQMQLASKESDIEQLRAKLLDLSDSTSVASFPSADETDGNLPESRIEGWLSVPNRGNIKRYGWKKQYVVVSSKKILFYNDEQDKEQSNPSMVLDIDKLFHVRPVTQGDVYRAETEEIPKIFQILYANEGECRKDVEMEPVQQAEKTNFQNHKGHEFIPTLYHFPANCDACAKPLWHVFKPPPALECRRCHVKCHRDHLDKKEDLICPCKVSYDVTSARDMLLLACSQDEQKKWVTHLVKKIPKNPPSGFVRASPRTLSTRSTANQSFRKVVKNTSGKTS
Sequence of PfPKG (Plasmodium falciparum, UniProt Q8I719) (Q8I719 whole entry): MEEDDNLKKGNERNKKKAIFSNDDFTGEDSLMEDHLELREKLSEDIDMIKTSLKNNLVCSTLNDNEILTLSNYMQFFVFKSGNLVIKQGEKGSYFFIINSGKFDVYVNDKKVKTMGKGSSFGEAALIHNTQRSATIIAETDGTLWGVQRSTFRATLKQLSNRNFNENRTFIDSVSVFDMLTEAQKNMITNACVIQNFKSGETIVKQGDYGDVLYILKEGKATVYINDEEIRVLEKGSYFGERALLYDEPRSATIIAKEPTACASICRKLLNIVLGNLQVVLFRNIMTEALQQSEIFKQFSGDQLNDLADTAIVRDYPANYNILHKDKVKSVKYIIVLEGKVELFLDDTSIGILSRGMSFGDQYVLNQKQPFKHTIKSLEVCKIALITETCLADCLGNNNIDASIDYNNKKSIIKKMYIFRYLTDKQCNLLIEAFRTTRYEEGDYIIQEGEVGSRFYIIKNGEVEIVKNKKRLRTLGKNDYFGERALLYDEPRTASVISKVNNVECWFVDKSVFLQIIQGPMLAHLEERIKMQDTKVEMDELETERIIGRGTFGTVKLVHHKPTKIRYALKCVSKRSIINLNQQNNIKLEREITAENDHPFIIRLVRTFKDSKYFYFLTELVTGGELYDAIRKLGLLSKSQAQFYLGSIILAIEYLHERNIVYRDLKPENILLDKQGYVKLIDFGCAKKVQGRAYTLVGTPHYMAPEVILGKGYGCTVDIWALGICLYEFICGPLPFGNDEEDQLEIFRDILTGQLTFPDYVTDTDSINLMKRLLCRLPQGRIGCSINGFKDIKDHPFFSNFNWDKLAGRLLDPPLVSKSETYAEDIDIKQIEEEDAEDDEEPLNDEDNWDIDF

With `C[C@H]1[C@@H](O)O[C@@H]2O[C@@]3(C)CC[C@H]4[C@H](C)CC[C@@H]1[C@@]24OO3` [DHA, dihydroartemisinin, reference compound], the IC50 in the assay with P. falciparum 3D7 was determined as 2 nM; in the assay with P. falciparum 7G8, 0.5 nM; with P. falciparum Dd2-B2, 3 nM; in the assay with P. falciparum K1 it was 2 nM.

Take `COC(=O)c1cc(-c2[nH]c(C3CCN(C)CC3)cc2-c2ccncc2)ccc1F` [RUPB-72, Methyl 2-fluoro-5-(5-(1-methylpiperidin-4-yl)-3-(pyridin-4-yl)-1H-pyrrol-2-yl)benzoate]: at PfPKG [1], the concentration for half-maximal inhibition (IC50) is 17.2 nM.

Consider `COc1ccc(-c2[nH]c(C3CCN(C)CC3)cc2-c2ccncc2)cc1` [RUPB-34], for which, at ROCK2, the “Kd for ROCK2 higher compared to RUPB-61” value was 40–700 fold and the Kd was determined as 6400 nM. For the same compound, at ROCK1, the “Kd for ROCK1 higher compared to RUPB-61” value is on record as 40–700 fold, the Kd is 9200 nM and the “ROCK1 Experimental Binding (ΔG)” value is -6.9 kcal/mol. Moreover, on CIT, the “Kd for CIT higher compared to RUPB-61” value is on record as 5–125 fold and the Kd came to 620 nM.

In the case of `CN1CCC(c2cc(-c3ccncc3)c(-c3ccc(F)c(C(C)(C)O)c3)[nH]2)CC1` [RUPB-69, 2-(2-Fluoro-5-(5-(1-methylpiperidin-4-yl)-3-(pyridin-4-yl)-1H-pyrrol-2-yl)phenyl)propan-2-ol], on CIT, the “Kd for CIT higher compared to RUPB-61” value was 5–125 fold and the Kd was found to be 210 nM. Besides, the “improvement in PfPKG IC50 compared to RUPB-61” value on PfPKG [1] is 10 fold. Moreover, on PfPKG [1] (setting [4]), the “PfPKG (ΔG)” value is given as -12.1 kcal/mol and the “PfPKG Experimental Binding (ΔG)” value is -12.1 kcal/mol.

For `C[C@H]1CN(C)CC[C@H]1c1cc(-c2ccncc2)c(-c2ccc(F)cc2)[nH]1.Cl.Cl` [RUPB-58, 4-{5-[(3R,4R)-1,3-Dimethylpiperidin-4-yl]-2-(4-fluorophenyl)-1H-pyrrol-3-yl}pyridine Dihydrochloride], the “IC50 against DHA-sensitive CamWT compared with DHA-resistant CamC580Y” value (“IC50 … compared with DHA-resistant CamC580Y” for short) in [2] is “similar”. The 50% inhibitory concentration (IC50) with P. falciparum TM90_C2B was determined as 122 nM; in the assay on P. falciparum 3D7, 170 nM; with P. falciparum 7G8, 57 nM; with P. falciparum Dd2-B2 it was 467 nM; in the assay on P. falciparum K1, 239 nM.

Consider `CCC(O)(CC)c1cc(-c2[nH]c(C3CCN(C)CC3)cc2-c2ccncc2)ccc1F` [RUPB-73, 3-(2-Fluoro-5-(5-(1-methylpiperidin-4-yl)-3-(pyridin-4-yl)-1H-pyrrol-2-yl)phenyl)pentan-3-ol], for which the IC50 at PfPKG [1] was found to be 256 nM.

Consider `C[C@H]1CN(C)CC[C@@H]1c1cc(-c2ccncc2)c(-c2ccc(F)cc2)[nH]1.Cl.Cl` [RUPB-59, 4-{5-[(3R,4S)-1,3-Dimethylpiperidin-4-yl]-2-(4-fluorophenyl)-1H-pyrrol-3-yl}pyridine Dihydrochloride], for which the “IC50 … compared with DHA-resistant CamC580Y” value in assay [2] is reported as “similar”. Besides, the IC50 in the assay on P. falciparum TM90_C2B was 120 nM; in the assay on P. falciparum 3D7 it was 80 nM; in the assay with P. falciparum 7G8, 135 nM; in the assay with P. falciparum Dd2-B2, 353 nM; with P. falciparum K1 it was 148 nM.

Take `CN1CCC(c2[nH]c(-c3ccc(F)cc3)c(-c3ccncc3)c2C#N)CC1` [RUPB-18]: on ROCK2, the “Kd for ROCK2 higher compared to RUPB-61” value is recorded as 40–700 fold and the Kd turned out to be 560 nM. Further, at ROCK1, the “Kd for ROCK1 higher compared to RUPB-61” value is 40–700 fold, the Kd amounted to 700 nM and the “ROCK1 Experimental Binding (ΔG)” value is -8.4 kcal/mol. Besides, on CIT, the “Kd for CIT higher compared to RUPB-61” value is reported as 5–125 fold and the Kd amounted to 25 nM.

With `C[C@@H]1CN(C)CC[C@H]1c1cc(-c2ccncc2)c(-c2ccc(F)cc2)[nH]1.Cl.Cl` [RUPB-60, 4-{5-[(3S,4R)-1,3-Dimethylpiperidin-4-yl]-2-(4-fluorophenyl)-1H-pyrrol-3-yl}pyridine Dihydrochloride], the “IC50 … compared with DHA-resistant CamC580Y” value in [2] is listed as “similar”. Besides, in the assay on PfPKG [3], the “IC50 against PfPKG variants, RUPB-60 compared with RUPB-61” value is given as “similar”. For the same compound, the IC50 in the assay on P. falciparum TM90_C2B turned out to be 80 nM; with P. falciparum 3D7, 50 nM; in the assay with P. falciparum 7G8 it was 28 nM; in the assay with P. falciparum Dd2-B2 it was 144 nM; in the assay on P. falciparum K1 it was 81 nM.

For `CN1CCC(c2cc(-c3ccncc3C#N)c(-c3ccc(F)cc3)[nH]2)CC1` [RUPB-8], at ROCK2, the “Kd for ROCK2 higher compared to RUPB-61” value is listed as 40–700 fold and the Kd stood at 1100 nM. In addition, on ROCK1, the “Kd for ROCK1 higher compared to RUPB-61” value is recorded as 40–700 fold, the Kd came to 780 nM and the “ROCK1 Experimental Binding (ΔG)” value is on record as -8.4 kcal/mol. Further, the Kd at CIT was 12 nM.

The IC50 is the midpoint of a concentration-inhibition curve. One may read the Kd as the constant that tells how readily two partners part at equilibrium.

These data come from PMC13422867, “An orally available PfPKG inhibitor blocks Plasmodium’s infection of the liver” (PLOS Pathogens, 2026).
